Data on 22 molecules can be found in article PMC6009913, “N-aryl 2-aryloxyacetamides as a new class of fatty acid amide hydrolase (FAAH) inhibitors” (Journal of Enzyme Inhibition and Medicinal Chemistry, 2017).

Data set [1] concerns the target T1, FAAH (Rattus norvegicus, UniProt P97612).
T1 construct: using rat brain homogenates as enzyme source; from tissue; host or cells: rat brain homogenate
T1 sequence (P97612 1-579): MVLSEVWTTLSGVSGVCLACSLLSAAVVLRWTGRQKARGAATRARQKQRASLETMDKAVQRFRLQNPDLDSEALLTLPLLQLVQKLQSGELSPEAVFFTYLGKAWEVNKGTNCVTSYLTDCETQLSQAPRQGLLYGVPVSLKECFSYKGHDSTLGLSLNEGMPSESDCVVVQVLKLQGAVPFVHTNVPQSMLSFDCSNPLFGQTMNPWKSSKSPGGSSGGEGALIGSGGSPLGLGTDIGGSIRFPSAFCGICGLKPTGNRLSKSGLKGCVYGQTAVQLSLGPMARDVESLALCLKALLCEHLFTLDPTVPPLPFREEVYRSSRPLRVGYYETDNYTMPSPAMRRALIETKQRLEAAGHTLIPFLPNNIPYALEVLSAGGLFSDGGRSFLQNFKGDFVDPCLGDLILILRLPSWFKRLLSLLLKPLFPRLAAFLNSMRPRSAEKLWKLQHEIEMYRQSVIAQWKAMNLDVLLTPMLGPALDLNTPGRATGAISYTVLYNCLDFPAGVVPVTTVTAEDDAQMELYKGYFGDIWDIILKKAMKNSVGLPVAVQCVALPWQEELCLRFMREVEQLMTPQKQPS
The data set is described as follows: FAAH inhibition, hydrolysis of 0.5 µM [3H]AEA in rat brain homogenates. The format is biochemical. The following applies: for Maximum inhibition: maximal attainable inhibition according to preferred curve fit, mean ± standard error; for effect of pre-incubation on inhibition curve (time dependence): 60 vs. 0 min of pre-incubation.

The nature of data set [2]: thermodynamic aqueous solubility in phosphate-buffered saline. To be noted: aqueous buffer, thermodynamic from solid; phosphate-buffered saline 10 mM, pH 7.48, 37 °C. It counts as physicochemical.
For data set [3], the system named is FAAH. Set-up: method as in PMID 12461523. To be noted: previously reported data; cited from earlier work.
Data set [4] deals with FAAH. Set-up: method as in PMID 21502526. The following applies: reported; cited from earlier work.
[5] abbreviates: 60-min pre-incubation with enzyme.

Converted amounts (≈) assume the structure as drawn. Read-outs that look alike come from different tables or passages of the source.

With `CCC/C=C/COCC(=O)Nc1cccc(-c2nc3ncccc3[nH]2)c1` [4q, (E)-N-(3-(1H-imidazo[4,5-b]pyridin-2-yl)phenyl)-2-(hex-2-en-1-yloxy)acetamide], at FAAH [1] (no pre-incubation), the Maximum inhibition came to 100%.

Turning to `O=C(COc1ccc(C2CCCCC2)cc1)Nc1cccc(-c2nc3ncccc3[nH]2)c1` [4p, N-(3-(1H-imidazo[4,5-b]pyridin-2-yl)phenyl)-2-(4-cyclohexylphenoxy)acetamide], on FAAH [1] (no pre-incubation), the Maximum inhibition is on record as 100%. In turn, `O=C(COc1ccc(-c2ccccc2)cc1)Nc1cccc(-c2nc3ncccc3o2)c1` [4f, 2-([1,1′-Biphenyl]-4-yloxy)-N-(3-(oxazolo[4,5-b]pyridin-2-yl)phenyl)acetamide] returned a solubility (thermodynamic) in data set [2] of 3 to 20 µM (≈ 1.26 to 8.43 µg/mL).

Consider `O=C(COc1ccc(-c2ccccc2)cc1)Nc1ccccc1-c1nc2ncccc2o1` [4a, 2-([1,1′-Biphenyl]-4-yloxy)-N-(2-(oxazolo[4,5-b]pyridin-2-yl)phenyl)acetamide], for which the Maximum inhibition on FAAH [1] (no pre-incubation) amounted to 3 ± 5%. As to `O=C(COc1ccc(-c2ccccc2)cc1)Nc1ccccc1-c1nc2ncccc2[nH]1` [4l, N-(2-(1H-imidazo[4,5-b]pyridin-2-yl)phenyl)-2-([1,1'-biphenyl]-4-yloxy)acetamide], on FAAH [1], the “effect of pre-incubation on inhibition curve (time dependence)” value was “reduced maximal inhibition”. Also, at FAAH [1] (no pre-incubation), the Maximum inhibition is recorded as 70 ± 2%. For the molecule `CCC/C=C/COCC(=O)Nc1cccc(-c2nc3ncccc3o2)c1` [4h, (E)-2-(hex-2-en-1-yloxy)-N-(3-(oxazolo[4,5-b]pyridin-2-yl)phenyl)acetamide], the Maximum inhibition on FAAH [1] (no pre-incubation) is 100%. For the molecule `NC(=O)c1cccc(-c2cccc(OC(=O)NC3CCCCC3)c2)c1` [URB597], the IC50 with FAAH [3] is 4.6 ± 1.6 nM. As for `CCC/C=C/COCC(=O)Nc1ccccc1-c1nc2ncccc2[nH]1` [4n, (E)-N-(2–(1H-imidazo[4,5-b]pyridin-2-yl)phenyl)-2-(hex-2-en-1-yloxy)acetamide], the Maximum inhibition on FAAH [1] (no pre-incubation) is recorded as 100%. On to `CCn1c(=O)n([C@H]2CCCN(c3nccc(-c4cc5ccccc5o4)n3)C2)c2ccccc21` [crystal ligand, 1-{(3S)-1-[4–(1-benzofuran-2-yl)pyrimidin-2-yl]piperidin-3-yl}-3-ethyl-1,3-dihydro-2H-benzimidazol-2-one], for which the half-maximal inhibitory concentration (IC50) in the data set on FAAH [4] was 100 nM. With `O=C(COc1ccc(C2CCCCC2)cc1)Nc1ccccc1-c1nc2ncccc2o1` [4b, 2-(4-Cyclohexylphenoxy)-N-(2-(oxazolo[4,5-b]pyridin-2-yl)phenyl)acetamide], the Maximum inhibition on FAAH [1] (no pre-incubation) is on record as −1 ± 3%. At FAAH [1] (setting [5]), `O=C(COc1ccc(-c2ccccc2)cc1)Nc1ccc(-c2nc3ncccc3o2)cc1` [4i, 2-([1,1′-Biphenyl]-4-yloxy)-N-(4-(oxazolo[4,5-b]pyridin-2-yl)phenyl)acetamide] gave an IC50 of 280 nM and a maximum observed inhibition of 39 ± 2%. The Maximum inhibition at FAAH [1] (no pre-incubation) is given as 75 ± 4%. In data set [2], the thermodynamic solubility was 18 µM (≈ 7.59 µg/mL). Turning to `O=C(COc1ccc(C2CCCCC2)cc1)Nc1cccc(-c2nc3ncccc3o2)c1` [4g, 2-(4-Cyclohexylphenoxy)-N-(3-(oxazolo[4,5-b]pyridin-2-yl)phenyl)acetamide], the Maximum inhibition on FAAH [1] (no pre-incubation) is reported as 100%.

For the molecule `CCC/C=C/COCC(=O)Nc1ccccc1-c1nc2ncccc2o1` [4c, (E)-2-(hex-2-en-1-yloxy)-N-(2-(oxazolo[4,5-b]pyridin-2-yl)phenyl)acetamide], the Maximum inhibition at FAAH [1] (no pre-incubation) is reported as 7 ± 3%. On to `CCC/C=C/COCC(=O)Nc1ccc(-c2nc3ncccc3o2)cc1` [4k, (E)-2-(hex-2-en-1-yloxy)-N-(4-(oxazolo[4,5-b]pyridin-2-yl)phenyl)acetamide], for which, at FAAH [1] (no pre-incubation), the Maximum inhibition amounted to 46 ± 9%.

Consider `O=C(COc1ccc(C2CCCCC2)cc1)Nc1ccc(-c2nc3ncccc3[nH]2)cc1` [4s, N-(4-(1H-imidazo[4,5-b]pyridin-2-yl)phenyl)-2-(4-cyclohexylphenoxy)acetamide], for which, at FAAH [1], the “effect of pre-incubation on inhibition curve (time dependence)” value is given as “essentially identical inhibition curves”. For the same molecule, on FAAH [1] (no pre-incubation), the Maximum inhibition worked out at 62 ± 4%. Besides, the thermodynamic solubility in data set [2] was 3 µM (≈ 1.28 µg/mL). Turning to `O=C(COc1ccccc1)Nc1cccc(-c2nc3ncccc3o2)c1` [4d, N-(3-(oxazolo[4,5-b]pyridin-2-yl)phenyl)-2-phenoxyacetamide], the Maximum inhibition at FAAH [1] (no pre-incubation) came out at 100%. Still for that read-out and setting: the value for `O=C(COc1ccc(C2CCCCC2)cc1)Nc1ccc(-c2nc3ncccc3o2)cc1` [4j, 2-(4-Cyclohexylphenoxy)-N-(4-(oxazolo[4,5-b]pyridin-2-yl)phenyl)acetamide] was 19 ± 10%; that for `CC(C)c1ccc(OCC(=O)Nc2cccc(-c3nc4ncccc4o3)c2)cc1` [4e, 2-(4-Isopropylphenoxy)-N-(3-(oxazolo[4,5-b]pyridin-2-yl)phenyl)acetamide] was 100%. Consider `O=C(COc1ccc(-c2ccccc2)cc1)Nc1ccc(-c2nc3ncccc3[nH]2)cc1` [4r, N-(4-(1H-imidazo[4,5-b]pyridin-2-yl)phenyl)-2-([1,1'-biphenyl]-4-yloxy)acetamide], for which the “effect of pre-incubation on inhibition curve (time dependence)” value at FAAH [1] is given as “reduced maximal inhibition”. For the same molecule, the Maximum inhibition on FAAH [1] (no pre-incubation) is recorded as 80 ± 2%. The molecule also had a solubility (thermodynamic) in data set [2] of 20 µM (≈ 8.41 µg/mL). As to `CCC/C=C/COCC(=O)Nc1ccc(-c2nc3ncccc3[nH]2)cc1` [4t, (E)-N-(4-(1H-imidazo[4,5-b]pyridin-2-yl)phenyl)-2-(hex-2-en-1-yloxy)acetamide], the half-maximal inhibitory concentration (IC50) is 43000 nM on FAAH [1] (setting [5]) and 64000 nM against FAAH [1] (rat brain homogenates, 0.5 µM [3H]AEA, no pre-incubation, pooled from three independent experiments, 5–7 concentrations). The “effect of pre-incubation on inhibition curve (time dependence)” value on FAAH [1] is “A small degree of time-dependent inhibition”. In addition, on FAAH [1] (no pre-incubation), the Maximum inhibition was 100%. For `O=C(COc1ccc(-c2ccccc2)cc1)Nc1cccc(-c2nc3ncccc3[nH]2)c1` [4o, N-(3-(1H-imidazo[4,5-b]pyridin-2-yl)phenyl)-2-([1,1'-biphenyl]-4-yloxy)acetamide], on FAAH [1] (no pre-incubation), the Maximum inhibition was determined as 71 ± 9%. Consider `O=C(COc1ccc(C2CCCCC2)cc1)Nc1ccccc1-c1nc2ncccc2[nH]1` [4m, N-(2-(1H-imidazo[4,5-b]pyridin-2-yl)phenyl)-2-(4-cyclohexylphenoxy)acetamide], for which the “effect of pre-incubation on inhibition curve (time dependence)” value on FAAH [1] is on record as “reduced maximal inhibition”. Further, on FAAH [1] (no pre-incubation), the Maximum inhibition stood at 82 ± 3%. For the same molecule, the solubility (thermodynamic) in data set [2] fell in the range of 3 to 20 µM (≈ 1.28 to 8.53 µg/mL).
